According to patent publication US10052320B2, “Substituted quinoxalines as FGFR kinase inhibitors” (ASTEX THERAPEUTICS LIMITED, priority 2011, dated 2018):

Key:
FGFR4 (h) = FGFR4 (h) (Homo sapiens, UniProt P22455); test: FGFR4 (enzymatic assay), TR-FRET; assay type: biochemical; settings: read-out: FGFR 4 pIC50 (converted)
Procedure: In a final reaction volume of 30 μL, FGFR4 (h) (60 ng/ml) was incubated with 50 mM HEPES pH 7.5, 6 mM MnCl2, 1 mM DTT, 0.1 mM Na3VO4, 0.01% Triton-X-100, 500 nM Btn-Flt3 and 5 μM ATP in the presence of compound (1% DMSO final). […] Time-Resolved Fluorescence Resonance Energy Transfer (TR-FRET) signal (ex340 nm. Em 620 nm, em 655 nm) was measured afterwards and results are expressed in RFU (Relative Fluorescence Units).

KDR (h) (VEGFR2) = KDR (h) (VEGFR2) (Homo sapiens, UniProt P35968); test: KDR (VEGFR2) (enzymatic assay), TR-FRET; assay type: biochemical
Chain of KDR (h) (VEGFR2) (P35968 20-1356): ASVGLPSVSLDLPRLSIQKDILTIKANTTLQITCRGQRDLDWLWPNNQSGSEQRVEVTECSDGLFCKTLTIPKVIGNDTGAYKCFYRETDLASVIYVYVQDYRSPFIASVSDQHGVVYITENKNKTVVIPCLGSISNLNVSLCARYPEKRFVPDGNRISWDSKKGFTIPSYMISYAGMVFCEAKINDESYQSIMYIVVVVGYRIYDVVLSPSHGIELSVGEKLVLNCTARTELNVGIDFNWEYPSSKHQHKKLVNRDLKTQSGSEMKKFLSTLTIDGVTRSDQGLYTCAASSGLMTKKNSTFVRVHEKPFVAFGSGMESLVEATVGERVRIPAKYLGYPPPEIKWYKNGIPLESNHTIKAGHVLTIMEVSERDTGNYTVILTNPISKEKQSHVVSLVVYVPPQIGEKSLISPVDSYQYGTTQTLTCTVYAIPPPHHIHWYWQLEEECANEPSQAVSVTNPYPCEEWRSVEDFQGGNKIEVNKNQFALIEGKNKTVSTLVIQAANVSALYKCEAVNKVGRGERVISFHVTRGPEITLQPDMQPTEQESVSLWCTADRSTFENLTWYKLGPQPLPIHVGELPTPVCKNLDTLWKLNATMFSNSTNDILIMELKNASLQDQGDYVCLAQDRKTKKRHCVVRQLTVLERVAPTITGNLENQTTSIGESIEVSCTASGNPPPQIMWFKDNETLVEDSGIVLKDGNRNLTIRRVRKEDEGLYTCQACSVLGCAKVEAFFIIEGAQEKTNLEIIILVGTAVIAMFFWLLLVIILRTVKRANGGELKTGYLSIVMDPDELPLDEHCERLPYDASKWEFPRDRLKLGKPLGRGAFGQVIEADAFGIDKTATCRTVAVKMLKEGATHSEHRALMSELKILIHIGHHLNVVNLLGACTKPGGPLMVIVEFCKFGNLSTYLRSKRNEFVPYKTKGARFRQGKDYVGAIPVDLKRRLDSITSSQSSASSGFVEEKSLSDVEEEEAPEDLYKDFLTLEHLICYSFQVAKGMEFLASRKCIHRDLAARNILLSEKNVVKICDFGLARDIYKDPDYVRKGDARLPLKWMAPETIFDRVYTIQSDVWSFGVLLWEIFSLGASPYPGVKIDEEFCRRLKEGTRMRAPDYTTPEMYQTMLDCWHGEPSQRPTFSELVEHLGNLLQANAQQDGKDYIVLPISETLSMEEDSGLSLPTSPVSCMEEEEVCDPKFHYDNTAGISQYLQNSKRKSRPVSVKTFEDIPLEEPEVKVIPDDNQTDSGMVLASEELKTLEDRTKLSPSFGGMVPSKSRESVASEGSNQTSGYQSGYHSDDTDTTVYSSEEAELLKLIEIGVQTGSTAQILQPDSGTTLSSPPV
Procedure: KDR (VEGFR2) (Enzymatic Assay)
In a final reaction volume of 30 μL, KDR (h) (150 ng/ml) was incubated with 50 mM HEPES pH 7.5, 6 mM MnCl2, 1 mM DTT, 0.1 mM Na3VO4, 0.01% Triton-X-100, 500 nM Btn-Flt3 and 3 μM ATP in the presence of compound (1% DMSO final). After incubation for 120 minutes at room temperature the reaction was stopped with 2.27 nM EU-anti P-Tyr, 7 mM EDTA, 31.25 nM SA-XL-665 and 0.02% BSA which was present for 60 minutes at room temperature. Time-Resolved Fluorescence Resonance Energy Transfer (TR-FRET) signal (ex340 nm. Em 620 nm, em 655 nm) was measured afterwards and results are expressed in RFU (Relative Fluorescence Units).

[1] = test system: Ba/F3-KDR-transfected cells in the presence of 10 ng/ml murine IL3; test: Ba/F3-KDR (plus IL3) cellular proliferation counterscreen, Alamar Blue; assay type: cell-based; settings: plus 10 ng/ml murine IL3; for IC50: Mus musculus, read-out: BAF3-KDR (PLUS IL3) 384 well pIC50 (converted)
Procedure: Ba/F3-KDR (Minus IL3 or Plus IL3) (Cellular Proliferation Assay)
[…] Cells were put in an incubator at 37° C. and 5% CO2. After 24 hours, 10 μl of Alamar Blue solution (0.5 mM K3Fe(CN)6, 0.5 mM KaFe(CN)6, 0.15 mM Resazurin and 100 mM Phosphate Buffer) was added to the wells, incubated for 4 hours at 37° C. and 5% CO2 before RFU's (Relative Fluorescence Units) (ex. 540 nm., em. 590 nm.) were measured in a flurorescence plate reader.
As a counterscreen the same experiment was performed in the presence of 10 ng/ml murine IL3.
In a 96 well plate, 180 μl cell culture medium (phenol red free RPMI-1640, 10% FBS, 2 mM L-Glutamine and 50 μg/ml Gentamycin) containing 10000 cells per well of Ba/F3-KDR-transfected cells were pipette and 20 μl of compound dilution in DMSO was added. Cells were put in an incubator at 37° C. and 5% CO2. After 24 hours, 40 μl of Alamar Blue solution (0.5 mM K3Fe(CN)6, 0.5 mM KaFe(CN)6, 0.15 mM Resazurin and 100 mM Phosphate Buffer) was added to the wells, incubated for 4 hours at 37° C. and 5% CO2 RFU's (Relative Fluorescence Units) (ex. 540 nm., em. 590 nm.) were measured in a flurorescence plate reader.

Chain of FGFR4 (h) (P22455 22-802): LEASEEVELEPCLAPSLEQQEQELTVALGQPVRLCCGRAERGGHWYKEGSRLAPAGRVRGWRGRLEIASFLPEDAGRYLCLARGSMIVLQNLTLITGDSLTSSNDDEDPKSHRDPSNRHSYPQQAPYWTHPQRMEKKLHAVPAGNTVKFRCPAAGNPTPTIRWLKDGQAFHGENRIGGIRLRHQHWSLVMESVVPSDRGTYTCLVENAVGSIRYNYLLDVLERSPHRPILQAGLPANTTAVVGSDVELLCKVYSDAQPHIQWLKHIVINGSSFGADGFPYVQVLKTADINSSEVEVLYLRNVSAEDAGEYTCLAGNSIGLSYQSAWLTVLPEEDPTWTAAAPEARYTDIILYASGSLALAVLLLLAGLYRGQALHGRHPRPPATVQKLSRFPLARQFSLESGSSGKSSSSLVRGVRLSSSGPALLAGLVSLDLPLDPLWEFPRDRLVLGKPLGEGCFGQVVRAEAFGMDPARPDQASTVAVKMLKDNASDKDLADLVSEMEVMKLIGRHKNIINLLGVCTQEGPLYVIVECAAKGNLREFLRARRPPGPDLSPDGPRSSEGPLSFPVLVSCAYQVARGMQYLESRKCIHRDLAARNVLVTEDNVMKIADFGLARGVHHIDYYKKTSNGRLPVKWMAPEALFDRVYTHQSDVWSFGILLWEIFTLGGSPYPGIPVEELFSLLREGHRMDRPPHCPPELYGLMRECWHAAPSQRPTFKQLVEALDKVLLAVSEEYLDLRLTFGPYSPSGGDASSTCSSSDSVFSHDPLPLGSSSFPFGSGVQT

Row | Structure (SMILES) | IC50 (FGFR4 (h)) [nM] | IC50 (KDR (h) (VEGFR2)) [nM] | IC50 [1] [µM] | BAF3-KDR (PLUS IL3) 384 well pIC50 [1]
1 | COCC(O)CN(c1cc(OC)cc(OC)c1)c1ccc2ncc(-c3cccnc3)nc2c1 (single isomer, unassigned) [Compound 46] | 47.9 | 295 | > 10 | 
2 | COCC(O)CN(c1cc(OC)cc(OC)c1)c1ccc2ncc(-c3cccnc3)nc2c1 (single isomer, unassigned) [Compound 47] | 115 | 339 |  | <5
3 | COCC(CN(c1cc(OC)cc(OC)c1)c1ccc2ncc(-c3cccnc3)nc2c1)OC(C)=O (single isomer, unassigned) [Compound 52] | 407 | > 1000 |  | 
4 | COCC(CN(c1cc(OC)cc(OC)c1)c1ccc2ncc(-c3cccnc3)nc2c1)OC(C)=O (single isomer, unassigned) [Compound 76] | 107 | 389 |  | <5
5 | COc1cc(OC)cc(N(CC#Cc2ncccn2)c2ccc3ncc(-c4cccnc4)nc3c2)c1 [Compound 2] | 195 | > 1000 |  | 
6 | COc1cc(OC)cc(N(CCCNCC(F)(F)F)c2ccc3ncc(-c4ccn(C)c4)nc3c2)c1 [Compound 5] |  | 126 |  | 
7 | COc1cc(OC)cc(N(CCO)c2ccc3ncc(-c4ccc(N5CCOCC5)nc4)nc3c2)c1 [Compound 19] | 17.8 | 170 |  | 
8 | COc1cc(OC)cc(N(CCCNCC(F)(F)F)c2ccc3ncc(-c4cnc(OC)nc4)nc3c2)c1 [Compound 26] | 479 | > 1000 | > 10 | 
9 | CO/N=C(\C)c1cnc2ccc(N(CCO)c3cc(OC)cc(OC)c3)cc2n1 [Compound 29] | 234 | > 1000 | > 10 | 
10 | COc1cc(OC)cc(N(CCN2CCOCC2)c2ccc3ncc(-c4ccc(NC(=O)N5CCOCC5)nc4)nc3c2)c1 [Compound 35] | 67.6 | 229 | > 10 | 
11 | COc1cc(OC)cc(N(CCO)c2ccc3ncc(-n4cnc(CO)c4)nc3c2)c1 [Compound 38] | 93.3 | 708 |  | 
12 | COc1cc(OC)cc(N(CCCO)c2ccc3ncc(-c4ccnc(C(=O)N5CCOCC5)c4)nc3c2)c1 [Compound 43] | 45.7 | 245 |  | 
13 | COc1cc(OC)cc(N(CCCNCC(=O)O)c2ccc3ncc(-c4ccnc(C(=O)NCCCCN)c4)nc3c2)c1 [Compound 44] | 51.3 | 302 |  | 
14 | COc1cc(OC)cc(N(CCN2CCNCC2)c2ccc3ncc(-c4ccc(N)nc4)nc3c2)c1 [Compound 59] | 64.6 | 45.7 |  | 
15 | COc1cc(OC)cc(N(CCNC(C)C)c2ccc3ncc(N4CCC(CN)CC4)nc3c2)c1 [Compound 67] | 200 | 447 | > 10 | 
16 | COc1cc(OC)cc(N(CCN2CCN(C(C)=O)CC2)c2ccc3ncc(-c4ccc(N)nc4)nc3c2)c1 [Compound 68] | 282 | 229 | > 10 | 
17 | COc1cc(OC)cc(N(CCNC(C)C)c2ccc3ncc(-n4cnc(CO)c4)nc3c2)c1 [Compound 77] | 52.5 | 513 | > 10 | 
18 | COc1cc(OC)cc(N(CCN)c2ccc3ncc(-c4ccn(C)c4)nc3c2)c1 [Compound 79] | 8.51 | 22.4 | > 10 | 
19 | COc1cc(OC)cc(N(CCO)c2ccc3ncc(N4CCC(CN)CC4)nc3c2)c1 [Compound 84] | 617 | > 1000 |  | 
20 | COc1cc(OC)cc(N(CC2CC2)c2ccc3ncc(-c4ccc5c(c4)OCO5)nc3c2)c1 [Compound 87] | 3550 | > 10000 |  | 
21 | CNc1ccc(-c2cnc3ccc(N(CCCNCC(F)(F)F)c4cc(OC)cc(OC)c4)cc3n2)cn1 [Compound 129] | 87.1 | 363 | > 10 | 
22 | COc1cc(OC)cc(N(CCCO)c2ccc3ncc(-c4ccnc(C(=O)NCCCCCN)c4)nc3c2)c1 [Compound 130] | 151 | 550 |  | 
23 | COc1cc(OC)cc(N(CCCNC(C)C)c2ccc3ncc(-c4ccnc(NC(=O)NC(C)C)c4)nc3c2)c1 [Compound 131] | 21.4 | 200 |  | 

Row | Structure (SMILES) | IC50 (FGFR4 (h)) [nM] | IC50 (KDR (h) (VEGFR2)) [nM] | IC50 [1] [µM] | BAF3-KDR (PLUS IL3) 384 well pIC50 [1]
24 | COc1cc(OC)cc(N(CCCNCCCO)c2ccc3ncc(-c4ccnc(C(=O)NCCCCN)c4)nc3c2)c1 [Compound 132] | 117 | 309 |  | 
25 | COc1cc(OC)cc(N(CCCO)c2ccc3ncc(-c4ccnc(-c5ccnc(Cl)c5)c4)nc3c2)c1 [Compound 133] | > 1000 | > 1000 |  | 
26 | COc1cc(OC)cc(N(CCCO)c2ccc3ncc(-c4cnc(N5CCN(C)CC5)c(C)c4)nc3c2)c1 [Compound 135] | 28.8 | 170 |  | 
27 | COc1cc(OC)cc(N(CCCO)c2ccc3ncc(-c4ccnc(Cl)c4)nc3c2)c1 [Compound 136] | 97.7 | 776 |  | 
28 | COc1cc(OC)cc(N(CCCNC(C)C)c2ccc3ncc(-c4ccnc(NC(=O)OC(C)(C)C)c4)nc3c2)c1 [Compound 137] | 42.7 | 275 |  | 
29 | COc1cc(OC)cc(N(CCO)c2ccc3ncc(-c4ccnc(C(=O)NCCCCCN)c4)nc3c2)c1 [Compound 138] | 178 | 759 |  | 
30 | COc1cc(OC)cc(N(CCO)c2ccc3ncc(-c4ccnc(C(=O)NCCCCCO)c4)nc3c2)c1 [Compound 139] | 97.7 | 692 | > 10 | 
31 | COc1cc(OC)cc(N(CCCO)c2ccc3ncc(-c4ccnc(F)c4)nc3c2)c1 [Compound 142] | 64.6 | 347 | > 10 | 
32 | COc1cc(OC)cc(N(CCCNC(C)C)c2ccc3ncc(-c4ccnc(N)c4)nc3c2)c1 [Compound 143] | 9.55 | 52.5 |  | 
33 | COc1cc(OC)cc(N(CCCNCC(F)(F)F)c2ccc3ncc(-c4ccnc(F)c4)nc3c2)c1 [Compound 144] | 468 | > 1000 |  | 
34 | COc1cc(OC)cc(N(CCCNCC(F)(F)F)c2ccc3ncc(-c4ccnc(Cl)c4)nc3c2)c1 [Compound 145] | 871 | > 1000 | > 10 | 
35 | COc1cc(OC)cc(N(CCNC(C)C)c2ccc3ncc(-c4ccnc(C(=O)NCCCN)c4)nc3c2)c1 [Compound 146] | 49 | 269 |  | 
36 | COc1cc(OC)cc(N(CCCNCC(F)(F)F)c2ccc3ncc(-c4ccnc(C(=O)NCCCN)c4)nc3c2)c1 [Compound 148] | 603 | > 1000 |  | 
37 | COc1cc(OC)cc(N(CCCO)c2ccc3ncc(-c4cccnc4F)nc3c2)c1 [Compound 149] | 166 | > 1000 |  | 
38 | COc1cc(OC)cc(N(CCCNCC(F)(F)F)c2ccc3ncc(-c4ccnc(C(=O)NCCCCCO)c4)nc3c2)c1 [Compound 150] | 224 | 708 | > 10 | 
39 | COc1cc(OC)cc(N(CCO)c2ccc3ncc(-c4ccccc4CCO)nc3c2)c1 [Compound 151] | 891 | > 1000 | > 10 | 
40 | COc1cc(OC)cc(N(CCO)c2ccc3ncc(-c4ccc(N5CCN(C(=O)OC(C)(C)C)CC5)cc4)nc3c2)c1 [Compound 156] | 95.5 | 407 | > 10 | 
41 | COc1cc(OC)cc(N(CCCNCC(F)(F)F)c2ccc3ncc(C(=O)NCCN4CCOCC4)nc3c2)c1 [Compound 158] | > 1000 | > 1000 | > 10 | 
42 | COc1cc(OC)cc(N(CCNC(C)C)c2ccc3ncc(C(=O)NCCCN4CCN(C)CC4)nc3c2)c1 [Compound 159] | 490 | > 1000 | > 10 | 
43 | COc1cc(OC)cc(N(CCNC(C)C)c2ccc3ncc(C(=O)NCCN4CCOCC4)nc3c2)c1 [Compound 160] | 309 | > 1000 | > 10 | 
44 | COc1cc(OC)cc(N(CCNC(C)C)c2ccc3ncc(NCC4CCNCC4)nc3c2)c1 [Compound 161] | 331 | 617 | > 10 | 
45 | COc1cc(OC)cc(N(CCNC(C)C)c2ccc3ncc(-c4ccnn4C4CCCCO4)nc3c2)c1 (centres unmarked) [Compound 188] | 70.8 |  | > 10 | 
